Here are results for two compounds from patent US6670485B2, “Prostanoic acid derivatives as agents for lowering intraocular pressure” (Allergan, Inc., priority 2001, dated 2003).

SMILES strings stand for the structures.

One experiment relates to Dog intraocular pressure. The experiment can be described thus: Intraocular pressure in dogs by applanation pneumatonometry. It counts as in vivo. The settings on record: 25 μl to the ocular surface, contralateral eye vehicle, IOP before drug administration and at 6 hours thereafter. On the procedure:
The effects of the compounds of this invention on intraocular pressure are also measured. The compounds are prepared at the said concentrations in a vehicle comprising 0.1% polysorbate 80 and 10 mM TRIS base. Dogs are treated by administering 25 μl to the ocular surface, the contralateral eye received vehicle as a control. Intraocular pressure is measured by applanation pneumatonometry. Dog intraocular pressure is measured immediately before drug administration and at 6 hours thereafter.

In the next experiment the test system is intraocular pressure. Description: Intraocular pressure in glaucomatous cynomolgus monkeys. It counts as in vivo. Conditions: glaucomatous cynomonlgus monkeys.

On to `C=CCOC(=O)CCC/C=C\C[C@H]1C(=O)C[C@@H](O)[C@@H]1/C=C/[C@@H](O)CCc1sc2ccccc2c1Cl` [6(a), (Z)-7-{(1R,2R,3R,5S)-2-[(E)-(S)-5-(3-Chlorobenzo[b]thiophen-2-yl)-3-hydroxypent-1-enyl]-3-hydroxy-5-oxocyclopentyl}hept-5-enoic acid allyl ester], for which, in the experiment on Dog intraocular pressure, the ocular hypotensive effect result was “pronounced ocular hypotensive effect”. With `O=C(O)CCC/C=C\C[C@H]1C(=O)C[C@@H](O)[C@@H]1/C=C/[C@@H](O)CCc1sc2ccccc2c1Cl` [7(a), (Z)-7-{(1R,2R,3R,5S)-2-[(E)-(S)-5-(3-Chlorobenzo[b]thiophen-2-yl)-3-hydroxypent-1-enyl]-3-hydroxy-5-oxocyclopentyl}hept-5-enoic acid], the ocular hypotensive effect entry with intraocular pressure was “pronounced ocular hypotensive effect”.
